Experimental data: patent US8741897B2, “Glucocorticoid mimetics, methods of making them, pharmaceutical compositions and uses thereof” (Boehringer Ingelheim Pharmaceuticals Inc., priority 2003, dated 2014)

Tests used:
[1] = target: T1, human glucocorticoid receptor (GR) complex (Homo sapiens, UniProt P04150); assay: Glucocorticoid receptor competitive binding assay (fluorescence polarization, TAMRA-labeled dexamethasone probe); details: compounds of Formula (IA)
T1 construct: made in house; host or cells: insect expression system (baculovirus lysate)
T1 sequence (P04150 1-777): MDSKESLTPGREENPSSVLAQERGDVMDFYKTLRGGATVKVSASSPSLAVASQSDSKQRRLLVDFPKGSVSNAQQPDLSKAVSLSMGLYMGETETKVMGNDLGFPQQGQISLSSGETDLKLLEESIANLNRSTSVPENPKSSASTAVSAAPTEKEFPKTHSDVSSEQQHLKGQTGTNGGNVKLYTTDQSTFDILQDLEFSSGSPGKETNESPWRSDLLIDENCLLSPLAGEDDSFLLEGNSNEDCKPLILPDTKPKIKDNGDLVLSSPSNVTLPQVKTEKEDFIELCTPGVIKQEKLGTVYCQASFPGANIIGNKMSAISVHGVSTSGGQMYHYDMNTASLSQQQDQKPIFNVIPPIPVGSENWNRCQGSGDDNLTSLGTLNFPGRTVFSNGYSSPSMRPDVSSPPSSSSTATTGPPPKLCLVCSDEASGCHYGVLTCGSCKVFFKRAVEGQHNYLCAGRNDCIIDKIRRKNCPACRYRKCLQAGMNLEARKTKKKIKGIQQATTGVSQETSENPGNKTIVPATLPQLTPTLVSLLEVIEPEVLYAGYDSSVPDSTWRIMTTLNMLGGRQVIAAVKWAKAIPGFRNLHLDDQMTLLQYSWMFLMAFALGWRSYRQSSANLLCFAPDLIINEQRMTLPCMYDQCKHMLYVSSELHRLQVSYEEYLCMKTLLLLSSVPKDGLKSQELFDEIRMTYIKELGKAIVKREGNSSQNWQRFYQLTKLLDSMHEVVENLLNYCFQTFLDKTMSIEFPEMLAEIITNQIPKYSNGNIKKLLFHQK
Procedure, shortened: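 Fluorescence-polarization competition against 15 nM TAMRA-dexamethasone (stock added to the mix) for human GR complex from baculovirus lysate diluted 1:170. Buffer: 10 mM TES, 50 mM KCl, 20 mM Na2MoO4, 1.5 mM EDTA, 0.04% CHAPS, 10% glycerol, 1 mM DTT, pH 7.4. IC50 from 4-parameter logistic fit.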

[2] = test system: glucocorticoid receptor function; assay: one or more of the above assays (GR binding and glucocorticoid receptor cell assays: aromatase, IL-6, TAT, MMTV-Luc, IL-8, ICAM-Luc); format: cell-based; details: assay not specified per compound

SMILES | activity in the GR binding assay [1] | activity as agonists of the glucocorticoid receptor function in one or more of the above assays [2]
CC(C)(CC(O)(Cc1cc2ccccc2[nH]1)C(F)(F)F)c1ccccc1C(F)(F)F (stereo not drawn) [1,1,1-Trifluoro-2-(1H-indol-2-ylmethyl)-4-methyl-4-(2-trifluoromethylphenyl)pentan-2-ol] | potent activity | potent agonists
CC(C)(C)c1ccc(O)c(C(C)(C)CC(O)(Cc2[nH]c3ccccc3c2C#N)C(F)(F)F)c1 (stereo not drawn) [2-[4-(5-tert-Butyl-2-hydroxyphenyl)-2-hydroxy-4-methyl-2-trifluoromethylpentyl]-1H-indole-3-carbonitrile] | potent activity | potent agonists
COc1ccc(F)cc1C(C)(C)CC(O)(Cc1cc2cc(C(=O)N3CCCC3)ccc2[nH]1)C(F)(F)F (stereo not drawn) [{2-[4-(5-Fluoro-2-methoxyphenyl)-2-hydroxy-4-methyl-2-trifluoromethylpentyl]-1H-indol-5-yl}pyrrolidin-1-ylmethanone] | potent activity | potent agonists
CC(C)(CC(O)(Cc1cc2cc(C(F)(F)F)ncc2[nH]1)C(F)(F)F)c1cc(Cl)cc2c1OCC2 (stereo not drawn) [4-(5-Chloro-2,3-dihydrobenzofuran-7-yl)-1,1,1-trifluoro-4-methyl-2-(5-trifluoromethyl-1H-pyrrolo[2,3-c]pyridin-2-ylmethyl)pentan-2-ol] | potent activity | potent agonists
COc1ccc(F)cc1C(C)(C)CC(O)(Cc1cc2ccnc(F)c2[nH]1)C(F)(F)F (stereo not drawn) [1,1,1-Trifluoro-4-(5-fluoro-2-methoxyphenyl)-2-(7-fluoro-1H-pyrrolo[2,3-c]pyridin-2-ylmethyl)-4-methylpentan-2-ol] | potent activity | potent agonists
COc1ccc(C(C)(C)C)cc1C(C)(C)CC(O)(Cc1[nH]c2ccccc2c1C#N)C(F)(F)F (stereo not drawn) [2-[4-(5-tert-Butyl-2-methoxyphenyl)-2-hydroxy-4-methyl-2-trifluoromethylpentyl]-1H-indole-3-carbonitrile] | potent activity | potent agonists
COc1ccc(F)cc1C(C)(C)CC(O)(Cc1cc2c(Cl)nc(N)nc2[nH]1)C(F)(F)F (stereo not drawn) [2-(2-Amino-4-chloro-7H-pyrrolo[2,3-d]pyrimidin-6-ylmethyl)-1,1,1-trifluoro-4-(5-fluoro-2-methoxyphenyl)-4-methylpentan-2-ol] | potent activity | potent agonists
COc1ccc(S(C)(=O)=O)cc1C(C)(C)CC(O)(Cc1[nH]c2ccccc2c1C#N)C(F)(F)F (stereo not drawn) [2-[2-Hydroxy-4-(5-methanesulfonyl-2-methoxyphenyl)-4-methyl-2-trifluoromethylpentyl]-1H-indole-3-carbonitrile] | potent activity | potent agonists
COc1ccc(F)cc1C(C)(C)CC(O)(Cc1cc2ccc(C#N)cc2[nH]1)C(F)(F)F (stereo not drawn) [2-[4-(5-Fluoro-2-methoxyphenyl)-2-hydroxy-4-methyl-2-trifluoromethylpentyl]-1H-indole-6-carbonitrile] | potent activity | potent agonists
COc1ccc(F)cc1C(C)(C)CC(O)(Cc1cc2c(C)nccc2[nH]1)C(F)(F)F (stereo not drawn) [1,1,1-Trifluoro-4-(5-fluoro-2-methoxyphenyl)-4-methyl-2-(4-methyl-1H pyrrolo[3,2-c]pyridin-2-ylmethyl)pentan-2-ol] | potent activity | potent agonists
CC(C)(CC(O)(Cc1cc2ccccc2[nH]1)C(F)(F)F)c1ccccn1 (stereo not drawn) [1,1,1-Trifluoro-2-(1H-indol-2-ylmethyl)-4-methyl-4-pyridin-2-ylpentan-2-ol] | potent activity | potent agonists
CC(C)(CC(O)(Cc1cc2ccccc2[nH]1)C(F)(F)F)c1cc(F)ccc1OC(F)F (stereo not drawn) [4-(2-Difluoromethoxy-5-fluorophenyl)-1,1,1-trifluoro-2-(1H-indol-2-ylmethyl)-4-methylpentan-2-ol] | potent activity | potent agonists
CC(C)c1ccc(O)c(C(C)(C)CC(O)(Cc2[nH]c3ccccc3c2C#N)C(F)(F)F)c1 (stereo not drawn) [2-[2-Hydroxy-4-(2-hydroxy-5-isopropylphenyl)-4-methyl-2-trifluoromethylpentyl]-1H-indole-3-carbonitrile] | potent activity | potent agonists
COc1cc(F)ccc1C(C)(C)CC(O)(Cc1cc2c(C)ccc(F)c2[nH]1)C(F)(F)F (stereo not drawn) [1,1,1-Trifluoro-4-(4-fluoro-2-methoxyphenyl)-2-(7-fluoro-4-methyl-1H-indol-2-ylmethyl)-4-methylpentan-2-ol] | potent activity | potent agonists
Cc1cc(C(C)(C)CC(O)(Cc2cc3ccccc3[nH]2)C(F)(F)F)ccc1F (stereo not drawn) [1,1,1-Trifluoro-4-(4-fluoro-3-methylphenyl)-2-(1H-indol-2-ylmethyl)-4-methylpentan-2-ol] | potent activity | potent agonists
COc1ccc(F)cc1C(C)(C)CC(O)(Cc1cc2cnncc2s1)C(F)(F)F (stereo not drawn) [1,1,1-Trifluoro-4-(5-fluoro-2-methoxyphenyl)-4-methyl-2-thieno[2,3-d]pyridazin-2-ylmethylpentan-2-ol] | potent activity | potent agonists
Cc1cc(C#N)cc2[nH]c(CC(O)(CC(C)(C)c3cccc4c3OCO4)C(F)(F)F)cc12 (stereo not drawn) [2-(4-Benzo[1,3]dioxol-4-yl-2-hydroxy-4-methyl-2-trifluoromethylpentyl)-4-methyl-1H-indole-6-carbonitrile] | potent activity | potent agonists
Cc1ccc(F)cc1C(C)(C)CC(O)(Cc1cc2nc(C#N)ccc2[nH]1)C(F)(F)F (stereo not drawn) [2-[4-(5-Fluoro-2-methylphenyl)-2-hydroxy-4-methyl-2-trifluoromethylpentyl]-1H-pyrrolo[3,2-b]pyridine-5-carbonitrile] | potent activity | potent agonists
